Laboratory results taken from patent US8802895B2, “Amide derivatives of benzene-sulfonanilide, pharmaceutical composition thereof and method for cancer treatment using the same” (Cleveland State University, priority 2010, dated 2014).

How the values were obtained:
Assay type in all cases: cell-based
SNB-75 = test: NCIDTP 60 cancer cell lines screening, CNS Cancer panel
NCI-H23 = test: NCIDTP 60 cancer cell lines screening, Non-Small Cell Lung Cancer panel
cells = test: Primary mechanism study: cell viability with compound #10 and 2-APB (FIG. 10); conditions: with and without 2-APB; cell viability after 48 hours
Protocol: For the experiment, 2-APB was first added. […] The control cells were treated with same amount of DMSO to carry the drugs. The cell viability was evaluated after 48 hours.

KM12 = test: NCIDTP 60 cancer cell lines screening, Colon Cancer panel
OVCAR-5 = test: NCIDTP 60 cancer cell lines screening, Ovarian Cancer panel
HL-60(TB) = test: NCIDTP 60 cancer cell lines screening, Leukemia panel
NCI/ADR-RES = test: NCIDTP 60 cancer cell lines screening, Ovarian Cancer panel
SNB-19 = test: NCIDTP 60 cancer cell lines screening, CNS Cancer panel
HOP-92 = test: NCIDTP 60 cancer cell lines screening, Non-Small Cell Lung Cancer panel
HCC-2998 = test: NCIDTP 60 cancer cell lines screening, Colon Cancer panel
BT-549 = test: NCIDTP 60 cancer cell lines screening, Breast Cancer panel
OVCAR-4 = test: NCIDTP 60 cancer cell lines screening, Ovarian Cancer panel
PC-3 = test: NCIDTP 60 cancer cell lines screening, Prostate Cancer panel
NCI-H460 = test: NCIDTP 60 cancer cell lines screening, Non-Small Cell Lung Cancer panel
SK-MEL-2 = test: NCIDTP 60 cancer cell lines screening, Melanoma panel
MCF7 = test: NCIDTP 60 cancer cell lines screening, Breast Cancer panel
SF-539 = test: NCIDTP 60 cancer cell lines screening, CNS Cancer panel
MDA-MB-231/ATCC = test: NCIDTP 60 cancer cell lines screening, Breast Cancer panel

## Cc1ccc(C)c(COc2cc(NC(=O)c3ccc4c(c3)OCO4)ccc2N(C)S(C)(=O)=O)c1 [Compound #10, Benzo[1,3]dioxole-5-carboxylic acid [3-(2,5-dimethyl-benzyloxy)-4-(methanesulfonyl-methyl-amino)-phenyl]-amide]
SNB-75; Homo sapiens, SNB-75
  GI50: 266 nM
SNB-75; Homo sapiens, SNB-75, read-out: LC50
  CC50: > 100 µM
SNB-75; SNB-75, Log10 Concentration −4.0 Molar
  Percent Growth: 3%
SNB-75; SNB-75, Log10 Concentration −5.0 Molar
  Percent Growth: −6%
SNB-75; SNB-75, Log10 Concentration −6.0 Molar
  Percent Growth: −5%
SNB-75; SNB-75, Log10 Concentration −7.0 Molar
  Percent Growth: 91%
SNB-75; SNB-75, Log10 Concentration −8.0 Molar
  Percent Growth: 86%
NCI-H23; Homo sapiens, NCI-H23
  GI50: 162 nM
NCI-H23; Homo sapiens, NCI-H23, read-out: LC50
  CC50: > 100 µM
NCI-H23; NCI-H23
  TGI: >1.00E−4 Molar
NCI-H23; NCI-H23, Log10 Concentration −4.0 Molar
  Percent Growth: 2%
NCI-H23; NCI-H23, Log10 Concentration −5.0 Molar
  Percent Growth: 3%
NCI-H23; NCI-H23, Log10 Concentration −6.0 Molar
  Percent Growth: 5%
NCI-H23; NCI-H23, Log10 Concentration −7.0 Molar
  Percent Growth: 62%
NCI-H23; NCI-H23, Log10 Concentration −8.0 Molar
  Percent Growth: 97%
cells
  cell death / cell viability, relation with calcium signal: induces cell death that is at least partially related with calcium signal in the cells
KM12; Homo sapiens, KM12
  GI50: 85.5 nM
KM12; Homo sapiens, KM12, read-out: LC50
  CC50: > 100 µM
KM12; KM12
  TGI: 1.13E−6 Molar
KM12; KM12, Log10 Concentration −4.0 Molar
  Percent Growth: −29%
KM12; KM12, Log10 Concentration −5.0 Molar
  Percent Growth: −19%
KM12; KM12, Log10 Concentration −6.0 Molar
  Percent Growth: 1%
KM12; KM12, Log10 Concentration −7.0 Molar
  Percent Growth: 47%
KM12; KM12, Log10 Concentration −8.0 Molar
  Percent Growth: 93%
OVCAR-5; Homo sapiens, OVCAR-5
  GI50: 538 nM
OVCAR-5; Homo sapiens, OVCAR-5, read-out: LC50
  CC50: > 100 µM
OVCAR-5; OVCAR-5
  TGI: >1.00E−4 Molar
OVCAR-5; OVCAR-5, Log10 Concentration −4.0 Molar
  Percent Growth: 25%
OVCAR-5; OVCAR-5, Log10 Concentration −5.0 Molar
  Percent Growth: 33%
OVCAR-5; OVCAR-5, Log10 Concentration −6.0 Molar
  Percent Growth: 37%
OVCAR-5; OVCAR-5, Log10 Concentration −7.0 Molar
  Percent Growth: 85%
OVCAR-5; OVCAR-5, Log10 Concentration −8.0 Molar
  Percent Growth: 85%
HL-60(TB); HL-60(TB)
  TGI: 9.67E−8 Molar
HL-60(TB); HL-60(TB), Log10 Concentration −4.0 Molar
  Percent Growth: −20%
HL-60(TB); HL-60(TB), Log10 Concentration −5.0 Molar
  Percent Growth: −20%
HL-60(TB); HL-60(TB), Log10 Concentration −6.0 Molar
  Percent Growth: −12%
HL-60(TB); HL-60(TB), Log10 Concentration −7.0 Molar
  Percent Growth: −1%
HL-60(TB); HL-60(TB), Log10 Concentration −8.0 Molar
  Percent Growth: 89%
HL-60(TB); Homo sapiens, HL-60, read-out: LC50
  CC50: > 100 µM
HL-60(TB); Homo sapiens, HL-60(TB)
  GI50: 26.9 nM
NCI/ADR-RES
  TGI: 4.07E−7 Molar
NCI/ADR-RES; Homo sapiens
  GI50: 56.2 nM
NCI/ADR-RES; Homo sapiens, read-out: LC50
  CC50: > 100 µM
NCI/ADR-RES; Log10 Concentration −4.0 Molar
  Percent Growth: −20%
NCI/ADR-RES; Log10 Concentration −5.0 Molar
  Percent Growth: −12%
NCI/ADR-RES; Log10 Concentration −6.0 Molar
  Percent Growth: −22%
NCI/ADR-RES; Log10 Concentration −7.0 Molar
  Percent Growth: 34%
NCI/ADR-RES; Log10 Concentration −8.0 Molar
  Percent Growth: 98%
SNB-19; Homo sapiens, SNB-19
  GI50: 537 nM
SNB-19; Homo sapiens, SNB-19, read-out: LC50
  CC50: > 100 µM
SNB-19; SNB-19
  TGI: >1.00E−4 Molar
SNB-19; SNB-19, Log10 Concentration −4.0 Molar
  Percent Growth: 39%
SNB-19; SNB-19, Log10 Concentration −5.0 Molar
  Percent Growth: 30%
SNB-19; SNB-19, Log10 Concentration −6.0 Molar
  Percent Growth: 36%
SNB-19; SNB-19, Log10 Concentration −7.0 Molar
  Percent Growth: 89%
SNB-19; SNB-19, Log10 Concentration −8.0 Molar
  Percent Growth: 93%
HOP-92; HOP-92
  TGI: >1.00E−4 Molar
HOP-92; HOP-92, Log10 Concentration −4.0 Molar
  Percent Growth: 37%
HOP-92; HOP-92, Log10 Concentration −5.0 Molar
  Percent Growth: 39%
HOP-92; HOP-92, Log10 Concentration −6.0 Molar
  Percent Growth: 62%
HOP-92; HOP-92, Log10 Concentration −7.0 Molar
  Percent Growth: 62%
HOP-92; HOP-92, Log10 Concentration −8.0 Molar
  Percent Growth: 78%
HOP-92; Homo sapiens, HOP-92
  GI50: 32.2 nM
HOP-92; Homo sapiens, HOP-92, read-out: LC50
  CC50: > 100 µM
HCC-2998; HCC-2998
  TGI: 3.92E−7 Molar
HCC-2998; HCC-2998, Log10 Concentration −4.0 Molar
  Percent Growth: −64%
HCC-2998; HCC-2998, Log10 Concentration −5.0 Molar
  Percent Growth: −61%
HCC-2998; HCC-2998, Log10 Concentration −6.0 Molar
  Percent Growth: −40%
HCC-2998; HCC-2998, Log10 Concentration −7.0 Molar
  Percent Growth: 58%
HCC-2998; HCC-2998, Log10 Concentration −8.0 Molar
  Percent Growth: 99%
HCC-2998; Homo sapiens, HCC 2998, read-out: LC50
  CC50: 2970 nM
HCC-2998; Homo sapiens, HCC-2998
  GI50: 120 nM
BT-549; BT-549
  TGI: >1.00E−4 Molar
BT-549; BT-549, Log10 Concentration −4.0 Molar
  Percent Growth: 21%
BT-549; BT-549, Log10 Concentration −5.0 Molar
  Percent Growth: 13%
BT-549; BT-549, Log10 Concentration −6.0 Molar
  Percent Growth: 45%
BT-549; BT-549, Log10 Concentration −7.0 Molar
  Percent Growth: 70%
BT-549; BT-549, Log10 Concentration −8.0 Molar
  Percent Growth: 92%
BT-549; Homo sapiens, BT-549
  GI50: 656 nM
BT-549; Homo sapiens, BT-549, read-out: LC50
  CC50: > 100 µM
OVCAR-4; Homo sapiens, OVCAR-4, read-out: LC50
  CC50: > 100 µM
OVCAR-4; OVCAR-4
  TGI: >1.00E−4 Molar
OVCAR-4; OVCAR-4, Log10 Concentration −4.0 Molar
  Percent Growth: 56%
OVCAR-4; OVCAR-4, Log10 Concentration −5.0 Molar
  Percent Growth: 47%
OVCAR-4; OVCAR-4, Log10 Concentration −6.0 Molar
  Percent Growth: 54%
OVCAR-4; OVCAR-4, Log10 Concentration −7.0 Molar
  Percent Growth: 90%
OVCAR-4; OVCAR-4, Log10 Concentration −8.0 Molar
  Percent Growth: 87%
PC-3; Homo sapiens, PC-3
  GI50: 67.7 nM
PC-3; Homo sapiens, PC-3, read-out: LC50
  CC50: > 100 µM
PC-3; PC-3
  TGI: >1.00E−4 Molar
PC-3; PC-3, Log10 Concentration −4.0 Molar
  Percent Growth: 21%
PC-3; PC-3, Log10 Concentration −5.0 Molar
  Percent Growth: 20%
PC-3; PC-3, Log10 Concentration −6.0 Molar
  Percent Growth: 21%
PC-3; PC-3, Log10 Concentration −7.0 Molar
  Percent Growth: 41%
PC-3; PC-3, Log10 Concentration −8.0 Molar
  Percent Growth: 92%
NCI-H460; Homo sapiens, NCI-H460
  GI50: 184 nM
NCI-H460; Homo sapiens, NCI-H460, read-out: LC50
  CC50: > 100 µM
NCI-H460; NCI-H460
  TGI: 7.44E−7 Molar
NCI-H460; NCI-H460, Log10 Concentration −4.0 Molar
  Percent Growth: −24%
NCI-H460; NCI-H460, Log10 Concentration −5.0 Molar
  Percent Growth: −10%
NCI-H460; NCI-H460, Log10 Concentration −6.0 Molar
  Percent Growth: −11%
NCI-H460; NCI-H460, Log10 Concentration −7.0 Molar
  Percent Growth: 72%
NCI-H460; NCI-H460, Log10 Concentration −8.0 Molar
  Percent Growth: 95%
SK-MEL-2; Homo sapiens, SK-MEL-2
  GI50: 89.7 nM
SK-MEL-2; Homo sapiens, SK-MEL-2, read-out: LC50
  CC50: > 100 µM
SK-MEL-2; SK-MEL-2
  TGI: 6.16E−7 Molar
SK-MEL-2; SK-MEL-2, Log10 Concentration −4.0 Molar
  Percent Growth: −18%
SK-MEL-2; SK-MEL-2, Log10 Concentration −5.0 Molar
  Percent Growth: −12%
SK-MEL-2; SK-MEL-2, Log10 Concentration −6.0 Molar
  Percent Growth: −13%
SK-MEL-2; SK-MEL-2, Log10 Concentration −7.0 Molar
  Percent Growth: 48%
SK-MEL-2; SK-MEL-2, Log10 Concentration −8.0 Molar
  Percent Growth: 99%
MCF7; Homo sapiens, MCF7
  GI50: 120 nM
MCF7; Homo sapiens, MCF7, read-out: LC50
  CC50: > 100 µM
MCF7; MCF7
  TGI: >1.00E−4 Molar
MCF7; MCF7, Log10 Concentration −4.0 Molar
  Percent Growth: 7%
MCF7; MCF7, Log10 Concentration −5.0 Molar
  Percent Growth: 10%
MCF7; MCF7, Log10 Concentration −6.0 Molar
  Percent Growth: 16%
MCF7; MCF7, Log10 Concentration −7.0 Molar
  Percent Growth: 53%
MCF7; MCF7, Log10 Concentration −8.0 Molar
  Percent Growth: 92%
SF-539; Homo sapiens, SF-539
  GI50: 125 nM
SF-539; Homo sapiens, SF-539, read-out: LC50
  CC50: > 100 µM
SF-539; SF-539, Log10 Concentration −5.0 Molar
  Percent Growth: −10%
SF-539; SF-539, Log10 Concentration −6.0 Molar
  Percent Growth: −10%
SF-539; SF-539, Log10 Concentration −7.0 Molar
  Percent Growth: 56%
SF-539; SF-539, Log10 Concentration −8.0 Molar
  Percent Growth: 91%
MDA-MB-231/ATCC; Homo sapiens, MDA-MB-231, read-out: LC50
  CC50: > 100 µM
MDA-MB-231/ATCC; Homo sapiens, MDA-MB-231/ATCC
  GI50: 256 nM
MDA-MB-231/ATCC; MDA-MB-231/ATCC
  TGI: 9.26E−7 Molar
MDA-MB-231/ATCC; MDA-MB-231/ATCC, Log10 Concentration −4.0 Molar
  Percent Growth: −7%
MDA-MB-231/ATCC; MDA-MB-231/ATCC, Log10 Concentration −5.0 Molar
  Percent Growth: −17%
MDA-MB-231/ATCC; MDA-MB-231/ATCC, Log10 Concentration −6.0 Molar
  Percent Growth: −3%
MDA-MB-231/ATCC; MDA-MB-231/ATCC, Log10 Concentration −7.0 Molar
  Percent Growth: 87%
MDA-MB-231/ATCC; MDA-MB-231/ATCC, Log10 Concentration −8.0 Molar
  Percent Growth: 90%
